Reference: patent US12521419B2, “Use of anti-aging glycopeptides to enhance pancreatic cell health, survival and improve transplant outcome” (Protokinetix Inc., priority 2014, dated 2026)

Tests used:
human islets [1] = assay: Viability by fluorescent membrane integrity assay (syto green/ethidium bromide); type: cell-based; conditions: 24 h ± AAGP then 24 hr tacrolimus 10 ng/mL
Experimental: After 24 hr of culture, islets are assessed for recovery, viability and function. Recovery rate is calculated as the percentage of surviving islets after 24 hr culture in comparison to the initial count for each condition. Viability is assessed using a fluorescent membrane integrity assay with counter-stains syto green/ethidium bromide (Cedarlane Laboratories, Burlington, ON, and Sigma-Aldrich, ON) (Islet isolation for clinical transplantation. In: Shahidul. M, (ed). The islets of Langerhans. New York: Springer, 2010; Ranuncoli A, et al. Cell transplantation 2000; 9(3):409-414; Ricordi C. et al. Acta diabetologica latina 1990; 27(3):185-195; and Barnett M J et al. Cell transplantation 2004; 13(5):481-488).

human islets [2] = assay: Static GSIS assay (stimulation index); type: cell-based; conditions: day 3, tacrolimus present
Source text: Similar experimental conditions were recreated (human islets cultured with and without AAGP™ and exposed to tacrolimus) and aliquots of approximately 100 IEQ were collected on day 3 for each corresponding group to undergo s-GSIS assay and simultaneous intracellular insulin content. Islets were then extensively washed to remove tacrolimus and left in culture for 4 more days, when sampling and comparative testing was repeated on day 7.

mouse splenocytes = assay: Allogeneic mixed lymphocyte reaction, T cell proliferation by CFSE staining; type: cell-based; conditions: vs IgG control, n=4
Source text: The assay measures T cell proliferative response by levels of CFSE staining.

[3] = system: human islets transplanted under the kidney capsule; assay: Proinflammatory cytokines and chemokines in homogenized graft 24 h post-transplant; type: in vivo, immunodeficient mice; conditions: 24 h after transplant, 1,000 IEQ, islets cultured with tacrolimus ± AAGP, n=3
Experimental: After 24 hr exposure to tacrolimus, samples from culture media of all groups are frozen and relevant cytokines and chemokines (IFN-γ, IL-1β, IL-6, IL-10, IL-12, Keratinocyte-derived Chemokine (KC), and TNF-α) are measured using a Multi-Spot Human ProInflammatory 7-Plex Ultra-Sensitive kit (Meso Scale Discovery®, Gaithersburg, MD, USA), analyzed on the SECTOR™ Imager (Meso Scale Discovery®, Gaithersburg, MD, USA). Results are expressed as absolute values (pg/mL), and CMRL culture media alone is used as a control for comparison.
Eight to 12 week immunodeficient mice (B6.129S7-Rag1^tm1Mom) are obtained from the Jackson Laboratory (Bar Harbor, ME, USA) and housed under specific pathogen-free conditions with access to food and water ad libitum. Animals are cared for according to the guidelines of the Canadian Council on Animal Care, and ethical approval is obtained from the animal welfare committee at the University of Alberta.
Animals are considered diabetic after two consecutive blood glucose measurements are documented≥18 mmol/L.
Ten animals per group received approximately 1,000 IEQ human islets transplanted under the capsule of the left kidney as described previously (19).
Three mice per group underwent nephrectomy and are euthanized 24 hr post-transplant to perform acute determination of proinflammatory cytokines, cleaved capase-3 and TUNEL in the graft area. In all cases the islet graft is excised from the kidney, weighed, flash frozen in liquid nitrogen and stored at −80° C. Tissue samples are subsequently lysed using 1 ml of lysis buffer (0.15 M NaCl, 1 mM Tris-HCL, 0.1% SDS, 0.1% Triton X-100, 20 mM Sodium deoxycholate, 5 mM EDTA) per 200 mg of tissue. Lysates are then homogenized (PowerGen, Fisher Scientific, ON, Canada) on ice for 30 sec×2 replications, and sonicated (VirSonic, VirTis, NY, USA) with 10 quick pulses while on ice. Cellular debris is pelleted by centrifugation at 14,000 rpm for 10 min at 4° C. and the resulting supernatant is collected and placed in a microcentrifuge tube containing 10 μl of a protease inhibitor cocktail (Sigma-Aldrich Canada Co., Oakville, ON, Canada) per 1 ml of lysate (1:100).
Graft samples are assayed (using the corresponding mouse kit) for pro-inflammatory cytokines/chemokines, caspase-3 and TUNEL staining, as previously described. All determinations are adjusted per gram of tissue.
Further in vivo testing is performed to complement our in vitro findings. Using the same study groups (Tac−, Tac+ and Tac+AAGP™) minimal mass (1,000 IEQ) islet transplants are performed in chemically-induced diabetic immunodeficient mice (n=10 per group). […]

[4] = system: human islets transplanted under the kidney capsule; assay: Intra-graft apoptosis 24 h post-transplant (cleaved caspase-3, TUNEL); type: in vivo, immunodeficient mice; conditions: graft 24 h after transplant
Experimental: Apoptosis is measured in all groups using a cleaved caspase-3 spectrophotometric assay and Terminal deoxynucleotidyl transferase dUTP nick end labeling (TUNEL) staining. All determinations are made on normalized groups of 100 IEQ and their corresponding culture media.
Frozen media samples are used to determine cleaved caspase-3 increase using a spectrophotometric assay (EMD Millipore™. Billerica, MA, USA). Again, CMRL culture media alone with additives and no cells is used as a control, and results are expressed as fold-change increase compared to the control media.
For TUNEL staining (DeadEnd™ Apoptosis Detection System, Promega, Madison, WI), islets are fixed in formalin, processed and embedded in paraffin. Co-staining is performed to identify the graft (insulin), apoptotic cells and all nuclei present in the field. Apoptosis is quantified by percentage of positive TUNEL stained area using imageJ software.
Three mice per group underwent nephrectomy and are euthanized 24 hr post-transplant to perform acute determination of proinflammatory cytokines, cleaved capase-3 and TUNEL in the graft area. In all cases the islet graft is excised from the kidney, weighed, flash frozen in liquid nitrogen and stored at −80° C. […]

C=CC[C@@H]1/C=C(\C)C[C@H](C)C[C@H](OC)[C@H]2O[C@@](O)(C(=O)C(=O)N3CCCC[C@H]3C(=O)O[C@H](/C(C)=C/[C@@H]3CC[C@@H](O)[C@H](OC)C3)[C@H](C)[C@@H](O)CC1=O)[C@H](C)C[C@@H]2OC.O [Tac+, tacrolimus]
cell viability by membrane integrity stain (human islets [1]): no difference in cell viability
stimulation index (s-GSIS) (human islets [2]): 1.4
T cell proliferation (CD8+ and CD4+) (mouse splenocytes): significantly decreased
IL-1β level in graft [3]: 17.81 pg/mL/g-tissue
IL-6 level in graft [3]: 147.8 pg/mL/g-tissue
KC (keratinocyte chemokine) level in graft [3]: 9.79 pg/mL/g-tissue
TNF-α level in graft [3]: 1.63 pg/mL/g-tissue
cleaved caspase-3, fold-change increase relative to kidneys of naïve mice ([4]; n=3): 3.14
percentage of TUNEL positive cells ([4]; control 14.9%): 53.3%
